Source: ChEMBL document CHEMBL5346920, “Development of the "hidden" multi-target-directed ligands by AChE/BuChE for the treatment of Alzheimer's disease” (Eur J Med Chem, 2023)
pIC50: −log10 of the molar value. Activity calls are given as the source filed them. No cut-off for these calls is given here.

What was measured:
[1] = Metal chelating activity assessed as compound-Al3+ complex formation by measuring maximum absorption wavelength shift from 316 to 434 nm at 37.5 uM incubated for 30 mins in presence of AlCl3 by UV-Vis spectrometry
[2] = target: Cholinesterase (Equus caballus) (UniProt P81908); assay: Reversible inhibition of equine serum BuChE assessed as enzyme activity using butyrylthiocholine chloride as substrate measured after dilution to 1XIC50 by Ellman's method; type: cell-free; design: scale not given: the % may be the effect or the level left
Sequence of Cholinesterase (Equus caballus) (P81908 whole entry): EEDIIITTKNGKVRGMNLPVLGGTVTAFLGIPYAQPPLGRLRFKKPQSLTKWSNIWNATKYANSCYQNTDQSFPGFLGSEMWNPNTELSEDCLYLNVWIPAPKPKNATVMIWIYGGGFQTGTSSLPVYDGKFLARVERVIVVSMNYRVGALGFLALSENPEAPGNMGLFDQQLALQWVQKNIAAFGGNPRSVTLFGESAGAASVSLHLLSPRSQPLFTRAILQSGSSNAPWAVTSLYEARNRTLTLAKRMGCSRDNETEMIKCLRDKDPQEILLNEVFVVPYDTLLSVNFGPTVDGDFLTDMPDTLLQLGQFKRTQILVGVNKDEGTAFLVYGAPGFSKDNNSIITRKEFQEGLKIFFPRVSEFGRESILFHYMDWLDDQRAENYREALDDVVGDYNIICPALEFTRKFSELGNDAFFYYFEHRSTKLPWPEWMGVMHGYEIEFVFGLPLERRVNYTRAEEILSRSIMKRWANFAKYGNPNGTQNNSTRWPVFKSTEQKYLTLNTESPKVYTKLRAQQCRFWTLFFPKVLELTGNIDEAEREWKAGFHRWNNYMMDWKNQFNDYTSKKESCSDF

[3] = Stability of the compound in rat plasma assessed as parent compound remaining at 10 ug/ml measured after 3 hrs by UPLC-MS/MS analysis; type: ADME, cell-free; conditions: at 10 µg/mL, read-out: Stability
Danio rerio [4] = organism: Danio rerio; assay: Antialzheimer activity against AlCl3-induced Alzheimer's disease zebra fish model assessed as total distance moved at 0.078 ug/ml treated for 24 hrs and measured after 24 hrs under alternating light dark stimuli conditions (reference value: 543 cm); type: functional; conditions: dose 0.078 µg/ml; time 48 hrs
Danio rerio [5] = organism: Danio rerio; assay: Antialzheimer activity against AlCl3-induced Alzheimer's disease zebra fish model assessed as total distance moved at 0.078 ug/ml treated for 24 hrs and measured after 24 hrs under dark environment (reference value: 312 cm); type: functional; conditions: dose 0.078 µg/ml; time 48 hrs
Danio rerio [6] = organism: Danio rerio; assay: Antialzheimer activity against AlCl3-induced Alzheimer's disease zebra fish model assessed as improvement in total distance velocity at 0.0195 ug/ml treated for 24 hrs and measured after 24 hrs; type: functional, organism-based; conditions: dose 0.0195 µg/ml, time 48.0 hrs
Danio rerio [7] = organism: Danio rerio; assay: Neuroprotective activity against AlCl3-induced Alzheimer's disease zebra fish model assessed as distance velocity at 0.078 ug/ml treated for 24 hrs and measured after 24 hrs under dark environment (reference value: 10.4 cm/min); type: functional; conditions: dose 0.078 µg/ml; time 48 hrs
PC-12 = assay: Neuroprotective activity against Amyloid beta(25 to 35)-induced cell injury in rat PC12 cells assessed as cell viability at 10 uM pretreated for 2 hrs followed by incubation with Abeta(25 to 35) for 24 hrs by CCK-8 assay (reference value: 41 to 58.6%); type: functional; conditions: time 26 hrs, read-out: Activity
Danio rerio [8] = organism: Danio rerio; assay: Antialzheimer activity against AlCl3-induced Alzheimer's disease zebra fish model assessed as total distance moved at 0.0195 ug/ml treated for 24 hrs and measured after 24 hrs under alternating light dark stimuli conditions (reference value: 543 cm); type: functional; conditions: dose 0.0195 µg/ml; time 48 hrs
Danio rerio [9] = organism: Danio rerio; assay: Neuroprotective activity against AlCl3-induced Alzheimer's disease zebra fish model assessed as distance velocity at 0.0195 ug/ml treated for 24 hrs and measured after 24 hrs under alternating light dark stimuli conditions (reference value: 9 cm/min); type: functional; conditions: dose 0.0195 µg/ml; time 48 hrs
[10] = Selectivity index, ratio of IC50 for inhibition of electric eel AChE to IC50 for inhibition of equine serum BuChE
[11] = target: T1, Amine oxidase [flavin-containing] A (Homo sapiens, UniProt P21397); assay: Inhibition of human recombinant MAO-A expressed in baculovirus-infected BTI cells using kynuramine as substrate incubated for 30 mins by fluorescence based analysis
T1 sequence (P21397 whole entry): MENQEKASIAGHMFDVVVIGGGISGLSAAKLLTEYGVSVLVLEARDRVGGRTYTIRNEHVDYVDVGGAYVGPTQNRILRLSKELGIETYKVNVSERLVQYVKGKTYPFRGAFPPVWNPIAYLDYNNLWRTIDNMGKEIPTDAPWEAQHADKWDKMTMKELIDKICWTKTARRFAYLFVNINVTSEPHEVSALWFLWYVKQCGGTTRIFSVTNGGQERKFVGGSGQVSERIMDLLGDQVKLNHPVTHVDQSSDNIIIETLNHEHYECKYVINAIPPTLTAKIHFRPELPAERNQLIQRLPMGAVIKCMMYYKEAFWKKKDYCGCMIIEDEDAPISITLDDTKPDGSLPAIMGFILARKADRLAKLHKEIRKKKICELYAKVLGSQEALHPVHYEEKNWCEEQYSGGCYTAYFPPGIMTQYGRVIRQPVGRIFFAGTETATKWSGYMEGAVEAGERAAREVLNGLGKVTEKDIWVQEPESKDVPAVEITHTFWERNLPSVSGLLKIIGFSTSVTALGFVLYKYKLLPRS

Acetylcholinesterase [12] = target: T2, Acetylcholinesterase (Electrophorus electricus, UniProt O42275); assay: Drug metabolism assessed as electric eel AChE-mediated 3-(4-fluorophenyl)-1-(2-hydroxyphenyl)prop-2-en-1-one formation treated with 0.25U AChE for 9 mins by HPLC analysis; type: ADME; conditions: 0.15 h
T2 sequence (O42275 whole entry): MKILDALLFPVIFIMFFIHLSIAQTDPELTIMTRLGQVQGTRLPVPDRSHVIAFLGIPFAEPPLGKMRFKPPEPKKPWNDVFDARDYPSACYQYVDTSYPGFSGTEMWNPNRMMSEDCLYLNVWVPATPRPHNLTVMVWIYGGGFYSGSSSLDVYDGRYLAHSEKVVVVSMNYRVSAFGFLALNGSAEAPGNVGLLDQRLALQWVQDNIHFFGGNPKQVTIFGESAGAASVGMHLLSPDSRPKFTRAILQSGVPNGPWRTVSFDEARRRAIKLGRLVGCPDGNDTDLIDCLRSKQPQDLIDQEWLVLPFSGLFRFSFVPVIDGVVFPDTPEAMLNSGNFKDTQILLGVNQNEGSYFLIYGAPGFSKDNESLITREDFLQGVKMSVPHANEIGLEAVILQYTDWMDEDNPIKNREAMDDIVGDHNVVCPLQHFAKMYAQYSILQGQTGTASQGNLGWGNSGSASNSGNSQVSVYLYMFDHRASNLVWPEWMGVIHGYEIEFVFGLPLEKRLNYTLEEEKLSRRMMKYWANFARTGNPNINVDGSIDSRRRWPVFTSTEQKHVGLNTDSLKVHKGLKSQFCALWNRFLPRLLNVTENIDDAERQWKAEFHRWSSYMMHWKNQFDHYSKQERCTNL

[13] = Acute toxicity in zebra fish assessed as decrease in swim bladder area at 2.5 ug/ml and measured at 120 hpf by microscopic analysis; design: species or system Danio rerio; conditions: zebrafish; dose 2.5 µg/ml
Danio rerio [14] = organism: Danio rerio; assay: Antialzheimer activity against AlCl3-induced Alzheimer's disease zebra fish model assessed as total distance moved at 0.0195 ug/ml treated for 24 hrs and measured after 24 hrs under light environment (reference value: 230 cm); type: functional; conditions: dose 0.0195 µg/ml; time 48 hrs
Danio rerio [15] = organism: Danio rerio; assay: Neuroprotective activity against AlCl3-induced Alzheimer's disease zebra fish model assessed as inhibition of AlCl3-induced AChE activity at 0.0049 to 0.078 ug/ml treated for 24 hrs and measured after 24 hrs; type: functional, organism-based; conditions: dose 0.0049-0.078 µg/ml, time 48.0 hrs
Danio rerio [16] = organism: Danio rerio; assay: Neuroprotective activity against AlCl3-induced Alzheimer's disease zebra fish model assessed as increase in ACh content at 0.0049 to 0.078 ug/ml treated for 24 hrs and measured after 24 hrs; type: functional, organism-based; conditions: dose 0.0049-0.078 µg/ml, time 48.0 hrs
BV-2 = assay: Anti-inflammatory activity against LPS-stimulated mouse BV-2 cells assessed as inhibition of LPS-induced IL-6 production incubated for 24 hrs in presence of LPS; type: functional, cell-based; conditions: dose 1-9 µM
Cholinesterase [17] = target: T3, Cholinesterase (Equus caballus, UniProt P81908); assay: Drug metabolism assessed as equine serum BuChE-mediated 3-(4-fluorophenyl)-1-(2-hydroxyphenyl)prop-2-en-1-one formation treated at 150 mmol/L with 0.001U BuChE and measured after 9 mins by HPLC analysis; type: ADME, cell-free; conditions: horse, 0.15 h
T3 sequence (P81908 whole entry): as the sequence (P81908 whole entry) above

[18] = Stability of the compound in blank gastric juice assessed as parent compound remaining at 1 mg/ml measured after 8 hrs by UPLC-MS/MS analysis; type: ADME; conditions: read-out: Stability
Danio rerio [19] = organism: Danio rerio; assay: Antialzheimer activity against AlCl3-induced Alzheimer's disease zebra fish model assessed as total distance moved at 0.0049 ug/ml treated for 24 hrs and measured after 24 hrs under alternating light dark stimuli conditions (reference value: 543 cm); type: functional; conditions: dose 0.0049 µg/ml; time 48 hrs
[20] = target: Acetylcholinesterase (Electrophorus electricus) (UniProt O42275); assay: Reversible inhibition of electric eel AChE assessed as enzyme activity using acetylthiocholine iodide as substrate measured after dilution to 0.1XIC50 for 120 mins by Ellman's method; design: scale not given: the % may be the effect or the level left
Sequence of Acetylcholinesterase (Electrophorus electricus) (O42275 24-633 limits assumed): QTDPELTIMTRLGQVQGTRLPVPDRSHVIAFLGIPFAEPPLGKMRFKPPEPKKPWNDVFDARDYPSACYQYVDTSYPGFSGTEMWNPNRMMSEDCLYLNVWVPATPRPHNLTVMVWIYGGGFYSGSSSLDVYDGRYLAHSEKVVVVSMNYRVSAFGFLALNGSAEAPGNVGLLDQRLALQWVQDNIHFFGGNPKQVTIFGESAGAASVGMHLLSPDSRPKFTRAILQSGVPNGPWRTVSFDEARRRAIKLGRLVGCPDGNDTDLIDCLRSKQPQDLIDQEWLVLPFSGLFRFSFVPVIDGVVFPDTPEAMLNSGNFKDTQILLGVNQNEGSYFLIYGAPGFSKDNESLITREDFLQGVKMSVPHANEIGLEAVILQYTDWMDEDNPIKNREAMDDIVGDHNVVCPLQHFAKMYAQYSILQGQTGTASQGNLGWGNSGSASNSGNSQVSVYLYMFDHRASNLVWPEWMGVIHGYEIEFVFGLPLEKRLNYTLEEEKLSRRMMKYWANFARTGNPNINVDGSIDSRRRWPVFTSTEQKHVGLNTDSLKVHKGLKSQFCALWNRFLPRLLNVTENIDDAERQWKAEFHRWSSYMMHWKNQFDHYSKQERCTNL

Cholinesterase [21] = target: T3, Cholinesterase; assay: Drug metabolism assessed as equine serum BuChE-mediated 3-(4-fluorophenyl)-1-(2-hydroxyphenyl)prop-2-en-1-one formation treated at 150 mmol/L with 0.25U BuChE and measured after 6 mins by HPLC analysis; type: ADME, cell-free; conditions: horse, 0.1 h
Acetylcholinesterase [22] = target: T2, Acetylcholinesterase; assay: Drug metabolism assessed as electric eel AChE-mediated 3-(4-fluorophenyl)-1-(2-hydroxyphenyl)prop-2-en-1-one formation treated at 150 mmol/L with 0.25U AChE and measured after 9 mins by HPLC analysis; type: ADME; conditions: 0.15 h
[23] = Metal chelating activity assessed as compound-Zn2+ complex formation at 37.5 uM incubated for 30 mins in presence of ZnCl2 by UV-Vis spectrometry

For `CCN(C)C(=O)Oc1ccccc1C(=O)/C=C/c1ccc(F)cc1`, the Activity [1] was “inactive”, the Activity [2] was 51.7% and the remaining at 3 h, 10 ug/ml [3] was 99.3%. The Activity (Danio rerio [4]) was 763 cm, the Activity (Danio rerio [5]) was 537 cm and the Activity (Danio rerio [6]) was “Active”. It also gave an Activity (Danio rerio [7]) of 17.9 cm/min, a viability at 10 µM (PC-12) of 75% and an Activity (Danio rerio [8]) of 922 cm. It also gave an Activity (Danio rerio [9]) of 15.3 cm/min, a Ratio IC50 [10] of 0.43 and a pIC50 [11] of 4.42. For the same compound, the Km (Acetylcholinesterase [12]) was 85.3 µM, the Activity [13] was “Toxic” and the Activity (Danio rerio [14]) was 344 cm. The Activity (Danio rerio [15]) was “Active”, the Activity (Danio rerio [16]) was “Active” and the Activity (BV-2) was “Dose-Dependent Effect”. For the same compound, the Drug metabolism (Cholinesterase [17]) was 2.52 mmol/L, the remaining at 8 h, 1 mg/ml [18] was 103% and the Activity (Danio rerio [19]) was 764 cm. For the same compound, the Activity [20] was 88.7%, the Drug metabolism (Cholinesterase [21]) was 14.62 mmol/L and the Drug metabolism (Acetylcholinesterase [22]) was 22.57 mmol/L. For the same compound, the Activity [23] was “inactive”.
